According to ChEMBL document CHEMBL1128376, “Carbethoxylating agents as inhibitors of aldehyde dehydrogenase” (J Med Chem, 1995):

Tested on: aldehyde dehydrogenase (Saccharomyces cerevisiae); call rule not given here
Experiment: In vitro inhibition against yeast aldehyde dehydrogenase; IA means In active

## CCOC=O [ETHOXYCARBONYL GROUP]
  IC50: Not Active
